The values that follow come from patent publication US6242494A, “Substituted β-amino acid inhibitors of methionine aminopeptidase-2” (Abbott Laboratories, priority 1999, dated 2001).

Structures can show the parent of a compound that is named as a salt.

T1 sequence (P50579 whole entry): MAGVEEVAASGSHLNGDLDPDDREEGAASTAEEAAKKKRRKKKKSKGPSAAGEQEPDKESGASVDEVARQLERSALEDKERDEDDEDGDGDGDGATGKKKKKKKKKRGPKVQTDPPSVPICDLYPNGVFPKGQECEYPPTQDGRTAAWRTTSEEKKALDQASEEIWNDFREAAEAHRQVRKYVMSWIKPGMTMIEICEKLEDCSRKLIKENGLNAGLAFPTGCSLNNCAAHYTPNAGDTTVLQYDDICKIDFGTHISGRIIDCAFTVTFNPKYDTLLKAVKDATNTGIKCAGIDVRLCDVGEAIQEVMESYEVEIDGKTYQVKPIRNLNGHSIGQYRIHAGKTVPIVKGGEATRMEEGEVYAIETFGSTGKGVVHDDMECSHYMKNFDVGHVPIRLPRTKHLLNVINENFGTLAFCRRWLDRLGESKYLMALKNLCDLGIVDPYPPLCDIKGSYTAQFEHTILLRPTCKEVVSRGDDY

The first assay addresses T1, methionine aminopeptidase-2 (MetAP2) (Homo sapiens, UniProt P50579).
T1 construct: made in house; host or cells: insect cells, baculovirus system (secreted, purified from culture supernatant)
Kind of assay: Inhibition of MetAP2 enzyme activity (96-well, Met-Ala-Ser substrate, L-amino acid oxidase/peroxidase/ortho-dianisidine, 450 nm). Type of assay: biochemical. The following applies: IC50, recombinant MetAP2 4 μg/mL, pH 7.4, Met-Ala-Ser substrate, 20 minutes. Here is the method:
The ability of compounds of the present invention to inhibit methionine aminopeptidase 2 was evaluated using the following assay.
Assays for MetAP2 enzyme activity and MetAP2 inhibition were performed in 96-well microtiter plates. Compounds to be tested for MetAP2 inhibition were dissolved in dimethyl-sulfoxide at 10 mM and diluted ten-fold in assay buffer ([…], pH 7.4, 100 mM NaCl). Ten microliters of solution of each compound to be tested for inhibition were introduced into each cell of the plate, with each compound being tested in triplicate.
The absorbence at 450 nanometers was measured every 20 seconds over a period of twenty minutes using an automaic plate reader (Molecular Devices, CA, USA). The Vmax in mOD/min, calculated for each well was used to represent MetAP2 activity. The IC50 for each inhibitor was obtained by plotting the remaining MetAP2 activity versus inhibitor concentration.
Usually IC50 stands for the point on the concentration scale where inhibition reaches its midpoint. As for `N[C@H](CC1CCCCC1)C(O)C(=O)NC1CCC1` (mixture of isomers) [Example 208, (2RS,3R)-3-amino-N-cyclobutyl-4-cyclohexyl-2-hydroxybutanamide Hydrochloride], the IC50 was determined as 2.7 µM.
Still for that read-out and setting: the result for `COc1ccc(CCNC(=O)C(O)[C@H](N)CCSC)cc1` (mixture of isomers) [Example 8, (2RS,3R) N-(2-(4-methoxyphenyl)ethyl)-3-amino-2-hydroxy-5-(methylthio)pentanamide hydrochloride] reads 2.3 µM.
Still for that read-out and setting: then `CC(NC(=O)C(O)[C@H](N)CC1CCCCC1)C12CC3CC(CC(C3)C1)C2` (mixture of isomers) [Example 233, (2RS,3R)-N-(1-(1-adamantyl)ethyl)-3-amino-4-cyclohexyl-2-hydroxybutanamide Hydrochloride], with 2.7 µM; and `CCOC(=O)CCNC(=O)C(O)[C@H](N)CCSCC` (stereo partly drawn) [Example 14, (2RS,3R)-N-(3-(carboethoxy)ethyl)-3-amino-2-hydroxy-5-(ethylthio)pentanamide hydrochloride], with 0.72 µM.
Still for that read-out and setting: the result for `COc1ccc(S(=O)(=O)NCCCCNC(=O)C(O)[C@H](N)CC2CCCCC2)cc1OC` (mixture of isomers) [Example 85, (2RS,3R)-3-amino-4-cyclohexyl-N-(4-(((3,4-dimethoxyphenyl)sulfonyl)amino)butyl)-2-hydroxybutanamide hydrochloride] reads 3.2 µM; that for `N[C@H](CC1CCCCC1)C(O)C(=O)NCCCN1CCCC1=O` (mixture of isomers) [Example 102, (2RS,3R)-3-Amino-4-cyclohexyl-2-hydroxy-N-(3-(2-oxo-1-pyrrolidinyl)propyl)butanamide Hydrochloride], 13 µM; that for `N[C@H](CC1CCCCC1)C(O)C(=O)Nc1ccc(Cl)cc1` (mixture of isomers) [Example 147, (2RS,3R)-3-amino-N-(4-chlorophenyl)-4-cyclohexyl-2-hydroxybutanamide], 1 µM.
As for `COc1cc(OC)c(NC(=O)C(O)[C@H](N)CC2CCCCC2)cc1Cl` (mixture of isomers) [Example 180, (2RS,3R)-3-amino-N-(5-chloro-2,4-dimethoxyphenyl)-4-cyclohexyl-2-hydroxybutanamide hydrochloride], the IC50 came out at 2 µM.
Still for that read-out and setting: then `N[C@H](CC1CCCCC1)C(O)C(=O)Nc1ccc(C(F)(F)F)cc1` (mixture of isomers) [Example 152, (2RS,3R)-3-amino-4-cyclohexyl-2-hydroxy-N-(4-(trifluoromethyl)phenyl)butanamide], with 2.4 µM; and `N[C@H](CC1CCCCC1)C(O)C(=O)NC1CCCC1` (mixture of isomers) [Example 207, (2RS,3R)-3-amino-4-cyclohexyl-N-cyclopentyl-2-hydroxybutanamide Hydrochloride], with 4.1 µM.
The same measure, in the same setting: then `C[C@H](NC(=O)C(O)[C@H](N)CC1CCCCC1)C(=O)OCc1ccc(C(C)(C)C)cc1` (stereo partly drawn) [Example 93, (2RS,3R)-3-Amino-2-hydroxy-4-cyclohexyl)butanoyl-L-alanine 4-tert-butylbenzyl Ester Hydrochloride], with 5.4 µM.
On the same count and under the same terms, then `CCSCC[C@@H](N)C(O)C(=O)NCCC(=O)OCc1ccccc1` (stereo partly drawn) [Example 15, (2RS,3R)-N-(3-(carbobenzyloxy)ethyl)-3-amino-2-hydroxy-5-(ethylthio)pentanamide hydrochloride], with 0.72 µM; and `N[C@H](CC1CCCCC1)C(O)C(=O)NCCCCNS(=O)(=O)c1ccc2ccccc2c1` (mixture of isomers) [Example 87, (2RS,3R)-3-amino-4-cyclohexyl-2-hydroxy-N-(4-((2-naphthylsulfonyl)amino)butyl)butanamide hydrochloride], with 2.7 µM; and `N[C@H](CC1CCCCC1)C(O)C(=O)NC1CCc2ccccc21` (mixture of isomers) [Example 228, (2RS,3R)-3-amino-4-cyclohexyl-N-(2,3-dihydro-1H-inden-1-yl)-2-hydroxybutanamide Hydrochloride], with 0.93 µM.
On to `COC(=O)c1ccc(COC(=O)[C@H](C)NC(=O)C(O)[C@H](N)CC2CCCCC2)cc1` (stereo partly drawn) [Example 94, (2RS,3R)-3-Amino-2-hydroxy-4-cyclohexyl)butanoyl-L-alanine 4-methoxycarbonylbenzyl Ester Hydrochloride], for which the IC50 was 0.91 µM.
Take `N[C@H](CC1CCCCC1)C(O)C(=O)Nc1cccc(Oc2ccccc2)c1` (mixture of isomers) [Example 162, (2RS,3R)-3-amino-4-cyclohexyl-2-hydroxy-N-(3-phenoxyphenyl)butanamide hydrochloride]: the IC50 is 1.2 µM.
On the same count and under the same terms, the result for `N[C@H](CC1CCCCC1)C(O)C(=O)NCCc1ccccc1` (mixture of isomers) [Example 192, (2RS,3R)-3-amino-4-cyclohexyl-2-hydroxy-N-phenethylbutanamide hydrochloride] reads 1.2 µM.
Same read-out and setting: then `CSCC[C@@H](N)C(O)C(=O)N(C)CCc1ccccc1` (stereo partly drawn) [Example 33, (2RS,3R)-3-amino-2-hydroxy-N-methyl-5-(methylthio)-N-phenethylpentanaamide hydrochloride], with 2.5 µM.
On the same count and under the same terms, the result for `N[C@H](CC1CCCCC1)C(O)C(=O)N[C@@H](CO)C(=O)OCc1cccc([N+](=O)[O-])c1` (stereo partly drawn) [Example 139, 3-nitrobenzyl (2RS,3R,2'S)-2-((3-amino-4-cyclohexyl-2-hydroxybutanoyl)amino)-3-hydroxypropanoate trifluoroacetate] reads 1.7 µM; that for `N[C@H](CC1CCCCC1)C(O)C(=O)Nc1ccccc1` (mixture of isomers) [Example 107, (2RS,3R)-3-Amino-4-cyclohexyl-2-hydroxy-N-phenylbutanamide Hydrochloride], 1.2 µM; that for `N[C@H](CC1CCCCC1)C(O)C(=O)NCCc1ccc(F)cc1` (mixture of isomers) [Example 142, (2RS,3R)-3-amino-4-cyclohexyl-N-(4-fluorophenethyl)-2-hydroxybutanamide hydrochloride], 0.4 µM.
As for `CC(C)(Cc1ccc(F)cc1)NC(=O)C(O)[C@H](N)CC1CCCCC1` (mixture of isomers) [Example 227, (2RS,3R)-3-amino-4-cyclohexyl-N-(2-(4-fluorophenyl)-1,1-dimethylethyl)-2-hydroxybutanamide Hydrochloride], the IC50 turned out to be 0.88 µM.
`N[C@H](CC1CCCCC1)C(O)C(=O)Nc1ccc(Cl)cc1Cl` (mixture of isomers) [Example 154, (2RS,3R)-3-amino-4-cyclohexyl-N-(2,4-dichlorophenyl)-2-hydroxybutanamide]: the IC50 turned out to be 1.9 µM.
Same read-out and setting: then `CSCC[C@@H](N)C(O)C(=O)O` (mixture of isomers) [Example 18, (2RS,3R)-3-amino-2-hydroxy-5-(methylthio)pentanoic acid], with 0.15 µM; and `COC(=O)C(Cc1ccccc1)NC(=O)C(O)[C@H](N)CC1CCCCC1` (mixture of isomers) [Example 127, methyl (2RS,3R)-2-((3-amino-4-cyclohexyl-2-hydroxybutanoyl)amino)-3-phenylpropanoate hydrochloride], with 28 µM.
Same read-out and setting: then `NCCCCNC(=O)C(O)[C@H](N)CC1CCCCC1` (stereo partly drawn) [Example 82, (2RS,3R)-3-amino-2-hydroxy-4-cyclohexyl)butanoyl-(4-aminobutyl)amide dihydrochloride], with 38 µM; and `N[C@H](CC1CCCCC1)C(O)C(=O)NCCc1ccccc1Cl` (mixture of isomers) [Example 108, (2RS,3R)-3-Amino-N-(2-chlorophenethyl)-4-cyclohexyl-2-hydroxybutanamide Hydrochloride], with 0.63 µM.
Same read-out and setting: the result for `N[C@H](CC1CCCCC1)C(O)C(=O)Nc1cccc(OCc2ccccc2)c1` (mixture of isomers) [Example 223, (2RS,3R)-3-amino-N-(3-(benzyloxy)phenyl)-4-cyclohexyl-2-hydroxybutanamide Hydrochloride] reads 0.88 µM.
Take `CSCC[C@@H](N)C(O)C(=O)NCCc1ccccc1` (stereo partly drawn) [Example 5, (2RS,3R)-N-((2-phenylethyl)-3-amino-2-hydroxy-5-(methylthio)pentanamide hydrochloride]: the IC50 came out at 2.6 µM.
The same measure, in the same setting: then `C[C@H](NC(=O)C(O)[C@H](N)CC1CCCCC1)C(=O)OC1CCCCC1` (stereo partly drawn) [Example 90, (2RS,3R)-3-Amino-2-hydroxy-4-cyclohexyl)butanoyl-L-alanine Cyclohexyl Ester Hydrochloride], with 2.3 µM; and `C[C@H](NC(=O)C(O)[C@H](N)CC1CCCCC1)C(=O)OCc1ccccc1` (stereo partly drawn) [Example 53, (2RS,3R,1'S)-N-((1-benzyloxycarbonylethyl)-3-amino-2hydroxy-$-cyclohexyl)butanamide hydrochloride], with 1.8 µM; and `COc1ccc(C(F)(F)F)cc1NC(=O)C(O)[C@H](N)CC1CCCCC1` (mixture of isomers) [Example 220, (2RS,3R)-3-amino-4-cyclohexyl-2-hydroxy-N-(2-methoxy-5-(trifluoromethyl)phenyl)butanamide Hydrochloride], with 5.5 µM.
Same read-out and setting: the result for `CCOC(=O)CCCNC(=O)C(O)[C@H](N)Cc1ccccc1` (mixture of isomers) [Example 21, (2RS,3R)-N-(3-(carboethoxy)propyl)-3-amino-2-hydroxy-4-phenyl-butanamide hydrochloride] reads 14 µM.

The assay is the same for the next values; noted with them: recombinant MetAP2 4 μg/mL, pH 7.4, Met-Ala-Ser substrate, 20 minutes; read-out: IC50.
For “(2RS,3R)-3-Amino-2-hydroxy-4-cyclohexyl)butanoyl-L-alanine Cyclopropyl Ester Hydrochloride [Example 92]”, the IC50 worked out at 1.4 µM.
